pIC50, pKi: −log10 of the molar value.
Key:
[1] = molecular target: T1, 3-oxo-5-alpha-steroid 4-dehydrogenase 1 (Homo sapiens, UniProt P18405); assay: Inhibition of recombinant human 5-alpha reductase-1 […] after pre-incubation for 10 minutes
T1 sequence (P18405 whole entry): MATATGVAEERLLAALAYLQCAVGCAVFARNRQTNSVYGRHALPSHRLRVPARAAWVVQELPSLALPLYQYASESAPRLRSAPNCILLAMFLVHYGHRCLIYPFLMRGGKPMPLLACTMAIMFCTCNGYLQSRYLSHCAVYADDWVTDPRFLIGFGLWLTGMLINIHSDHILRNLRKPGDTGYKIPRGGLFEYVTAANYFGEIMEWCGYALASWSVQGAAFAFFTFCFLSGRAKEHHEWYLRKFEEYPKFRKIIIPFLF

Rattus norvegicus = assay: In vivo evaluation in chronic castrated rat to inhibit T-stimulated prostate growth expressed as percentage reduction; assay type: functional, Prostate gland; parameters: concentration or dose not given beside the values
[2] = molecular target: T2, 3-oxo-5-alpha-steroid 4-dehydrogenase 2 (Homo sapiens, UniProt P31213); assay: Inhibition of recombinant human 5-alpha reductase-2 […] after pre-incubation for 10 minutes
T2 sequence (P31213 whole entry): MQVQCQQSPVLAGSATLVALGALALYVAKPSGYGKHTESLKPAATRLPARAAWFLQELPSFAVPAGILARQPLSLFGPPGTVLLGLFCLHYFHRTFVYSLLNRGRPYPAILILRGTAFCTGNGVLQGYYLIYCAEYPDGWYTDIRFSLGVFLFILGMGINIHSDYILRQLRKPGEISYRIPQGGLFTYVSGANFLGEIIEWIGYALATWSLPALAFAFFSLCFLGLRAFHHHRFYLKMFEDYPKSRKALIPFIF

[3] = Half-life in dog; assay type: ADME, organism-based, Canis lupus familiaris; conditions: in vivo
[4] = Bioavailability after oral administration in dog; assay type: ADME, organism-based, Canis lupus familiaris; conditions: in vivo

Structure (SMILES) | pKi [1] | Reduction (Rattus norvegicus) | pIC50 [1] | pIC50 [2] | half-life [3] | bioavailability [4]
CC(C)(C)NC(=O)[C@H]1CCC2C3CNC4=CC(=O)CC[C@]4(C)C3CC[C@@]21C (some centres undefined) | 6.09 |  |  |  |  | 
C[C@]12CCC(=O)C=C1NCC1C2CC[C@@]2(C)C1CC[C@@H]2C(=O)N1CCSCC1 (some centres undefined) | 6.24 |  |  |  |  | 
C[C@]12CCC(=O)C=C1NCC1C2CC[C@@]2(C)C1CC[C@@H]2C(=O)NC12C[C@H]3C[C@@H](C1)C[C@@H](C2)C3 (some centres undefined) | 7.96 | 18% |  |  |  | 
C[C@]12CCC(=O)C=C1NCC1C2CC[C@@]2(C)C1CC[C@@H]2C(=O)N1CCNCC1 (some centres undefined) | 5.07 |  |  |  |  | 
CC(C)(C)NC(=O)[C@H]1CC[C@H]2[C@@H]3CC[C@H]4NC(=O)C=C[C@]4(C)[C@H]3CC[C@]12C [FINASTERIDE] |  | 41% | 6.82 | 9.74 |  | 
C[C@]12CCC(=O)C=C1NCC1C2CC[C@@]2(C)C1CC[C@@H]2C(=O)NC(c1ccc(Cl)cc1)c1ccc(Cl)cc1 (some centres undefined) | 7.70 | 31% |  | 9.92 | 12 h | 
CC(C)N(C(=O)[C@H]1CCC2C3CNC4=CC(=O)CC[C@]4(C)C3CC[C@@]21C)C(C)C (some centres undefined) | 6.72 |  |  | 9.44 |  | 
C[C@]12CCC(=O)C=C1NCC1C2CC[C@@]2(C)C1CC[C@@H]2C(=O)N(Cc1ccccc1)Cc1ccccc1 (some centres undefined) | 7.12 |  |  |  |  | 
CON(C)C(=O)[C@H]1CCC2C3CNC4=CC(=O)CC[C@]4(C)C3CC[C@@]21C (some centres undefined) | 5.64 |  |  | 8.62 |  | 
CC(C)(C)NC(=O)[C@H]1CC[C@H]2[C@@H]3CC=C4C=C(C(=O)O)CC[C@]4(C)[C@H]3CC[C@]12C [EPRISTERIDE] | < 5.30 |  |  | 7.52 |  | 
CC(C)NC(=O)[C@H]1CCC2C3CNC4=CC(=O)CC[C@]4(C)C3CC[C@@]21C (some centres undefined) | 5.22 |  |  |  |  | 
COC(=O)[C@H]1CCC2C3CNC4=CC(=O)CC[C@]4(C)C3CC[C@@]21C (some centres undefined) | 6.82 |  |  |  |  | 
C[C@]12CCC(=O)C=C1NCC1C2CC[C@@]2(C)C1CC[C@@H]2C(=O)NN(c1ccccc1)c1ccccc1 (some centres undefined) | 7.85 | 38% |  | 9.64 |  | 
C[C@]12CCC(=O)C=C1NCC1C2CC[C@@]2(C)C1CC[C@@H]2C(=O)C1[C@H]2C[C@@H]3C[C@@H](C[C@H]1C3)C2 (some centres undefined) | 8.16 | 26% |  | 10.40 |  | 
C[C@]12CCC(=O)C=C1NCC1C2CC[C@@]2(C)C1CC[C@@H]2C(=O)NC(c1ccc(F)cc1)c1ccc(F)cc1 (some centres undefined) | 7.70 | 43% |  |  |  | 
C[C@]12CCC(=O)C=C1NCC1C2CC[C@@]2(C)C1CC[C@@H]2C(=O)NC(C1CCCCC1)C1CCCCC1 (some centres undefined) | 7.70 | 14% |  | 9.40 |  | 
C[C@]12CCC(=O)C=C1NCC1C2CC[C@@]2(C)C1CC[C@@H]2C(=O)NC(c1ccccc1)c1ccccc1 (some centres undefined) | 7.52 | 43% |  | 10.05 |  | 80%
C[C@]12CCC(=O)C=C1NCC1C2CC[C@@]2(C)C1CC[C@@H]2C(=O)N1CCOCC1 (some centres undefined) | 5.66 |  |  | 8.15 |  | 
C[C@]12CCC(=O)C=C1NCC1C2CC[C@@]2(C)C1CC[C@@H]2C(=O)NCc1ccccc1 (some centres undefined) | 6.44 |  |  |  |  | 
CCN(C)C(=O)[C@H]1CCC2C3CNC4=CC(=O)CC[C@]4(C)C3CC[C@@]21C (some centres undefined) | 6.14 |  |  | 8.55 |  | 
CC(C)CC(=O)[C@H]1CCC2C3CNC4=CC(=O)CC[C@]4(C)C3CC[C@@]21C (some centres undefined) | 8.05 | 18% |  | 10.10 |  | 
CCN(CC)C(=O)[C@H]1CCC2C3CNC4=CC(=O)CC[C@]4(C)C3CC[C@@]21C (some centres undefined) | 6.12 |  |  | 8.82 |  | 
C[C@]12CCC(=O)C=C1NCC1C2CC[C@@]2(C)C1CC[C@@H]2C(=O)NC(c1ccccc1)(c1ccccc1)c1ccccc1 (some centres undefined) | 8.09 | 4% |  | 10.05 |  | 

From ChEMBL document CHEMBL1126579, “6-Azasteroids: potent dual inhibitors of human type 1 and 2 steroid 5 alpha-reductase” (J Med Chem, 1993)
